The source of these data is patent US10112941B2, “Tricyclic compounds as anticancer agents” (BRISTOL-MYERS SQUIBB COMPANY, priority 2013, dated 2018).

In this experiment the target is BRD4 (Homo sapiens, UniProt O60885). Kind of experiment: Time Resolved Fluorescence Resonance Energy Transfer (TR-FRET) binding assay, BRD4. Conditions: one of the FRET assays described; read-out: FRET BRD4 IC50. Background: In TR-FRET formats the signal depends on donor and acceptor labels being close together.

SMILES strings stand for the structures. pIC50: −log10 of the molar value.

With `CNc1nnn(C)c1-c1cnc2c3ccc(C(C)(C)O)cc3n([C@H](c3ccccc3)C3CCOCC3)c2c1` [Example 390, 2-{3-[1-Methyl-4-(methylamino)-1H-1,2,3-triazol-5-yl]-5-[(S)-oxan-4-yl(phenyl)methyl]-5H-pyrido[3,2-b]indol-7-yl}propan-2-ol], the pIC50 (in general, the IC50 on a negative log10 scale, so that one unit is a factor of ten) was more than 8.30.
For the compound `Cc1nnn(C)c1-c1cnc2c3ccc(C(C)(C)O)cc3n(C(c3cc(F)cc(F)c3)C3CCOCC3)c2c1` (single isomer, unassigned) [Example 99, 2-{5-[(3,5-Difluorophenyl)(oxan-4-yl)methyl]-3-(dimethyl-1H-1,2,3-triazol-5-yl)-5H-pyrido[3,2-b]indol-7-yl}propan-2-ol], the negative logarithm of the IC50 (pIC50) was more than 8.30.
On to `[2H]C([2H])([2H])c1nnn(C)c1-c1cnc2c3c(F)ccc(S(C)(=O)=O)c3n(C(c3ncccc3F)C3CCOCC3)c2c1` (stereo not drawn) [Example 235, 3-Fluoro-2-({9-fluoro-6-methanesulfonyl-3-[4-(^2H3)methyl-1-methyl-1H-1,2,3-triazol-5-yl]-5H-pyrido[3,2-b]indol-5-yl}(oxan-4-yl)methyl)pyridine], for which the pIC50 is more than 8.30.
Consider `Cc1nnn(C)c1-c1cnc2c3ccc(C(C)(C)O)cc3n([C@H](c3ccccc3)C3CCOCC3)c2c1` (single isomer, unassigned) [Example 54], for which the pIC50 was more than 8.30.
As to `COc1ccc(C(C2CCOCC2)n2c3cc(C(C)(C)O)ccc3c3ncc(-c4c(C)nnn4C)cc32)c(F)c1` (single isomer, unassigned) [Example 119, 2-[3-(Dimethyl-1H-1,2,3-triazol-5-yl)-5-[(2-fluoro-4-methoxyphenyl)(oxan-4-yl)methyl]-5H-pyrido[3,2-b]indol-7-yl]propan-2-ol], the pIC50 is more than 8.30.
For `Cc1noc(C)c1-c1cnc2c3ccc(C(C)(C)O)c(F)c3n(C(c3ccc(F)cc3)C3CCOCC3)c2c1` (single isomer, unassigned) [Example 80, 2-[3-(Dimethyl-1,2-oxazol-4-yl)-6-fluoro-5-[(4-fluorophenyl)(oxan-4-yl)methyl]-5H-pyrido[3,2-b]indol-7-yl]propan-2-ol], the pIC50 is more than 7.60.
As to `COc1nnn(C)c1-c1cnc2c3ccc(C(C)(O)C4CC4)c(F)c3n([C@H](c3ccccc3)C3CCOCC3)c2c1` (stereo partly drawn) [Example 439, 1-Cyclopropyl-1-[6-fluoro-3-(4-methoxy-1-methyl-1H-1,2,3-triazol-5-yl)-5-[(S)-oxan-4-yl(phenyl)methyl]-5H-pyrido[3,2-b]indol-7-yl]ethan-1-ol], the pIC50 was more than 8.30.
Next, `Cc1noc(C)c1-c1cnc2c3ccc(C(C)(C)O)cc3n(C(c3c(F)cccc3F)C3CCOCC3)c2c1` (single isomer, unassigned) [Example 144, 2-{5-[(2,6-Difluorophenyl)(oxan-4-yl)methyl]-3-(dimethyl-1,2-oxazol-4-yl)-5H-pyrido[3,2-b]indol-7-yl}propan-2-ol]: more than 8.30; `[2H]C([2H])([2H])c1nnn(C)c1-c1cnc2c3ccc(C(C)(C)O)cc3n(C(c3ncccc3F)C3CCOCC3)c2c1` (single isomer, unassigned) [Example 315]: more than 8.30; `Cc1noc(C)c1-c1cnc2c3ccc(C(F)F)cc3n(Cc3ccccc3)c2c1` [Example 50, 4-[5-Benzyl-7-(difluoromethyl)-5H-pyrido[3,2-b]indol-3-yl]-3,5-dimethyl-1,2-oxazole]: more than 5.82.
For the compound `Cc1nnn(C)c1-c1cnc2c3ccc(C(C)(C)O)cc3n(C(c3cccc(F)c3F)C3CCOCC3)c2c1` (single isomer, unassigned) [Example 95, 2-{5-[(2,3-Difluorophenyl)(oxan-4-yl)methyl]-3-(dimethyl-1H-1,2,3-triazol-5-yl)-5H-pyrido[3,2-b]indol-7-yl}propan-2-ol], the pIC50 was more than 8.30.
For the compound `Cc1nnn(C)c1-c1cnc2c3ccc(C(C)(C)O)cc3n(C(c3ccccc3)C3CCC(F)(F)CC3)c2c1` (single isomer, unassigned) [Example 205], the pIC50 is more than 8.30.
